This note sets out measurements from US20230148005A1, “MACROCYCLIC COMPOUNDS AND USES THEREOF” (THESEUS PHARMACEUTICALS, INC., priority 2020, published 2023).

Some results are limits rather than exact numbers.

One assay concerns Ba/F3 Parental. The experiment in a line: Ba/F3 viability assay (CellTiter-Glo), parental. The assay is classed as cell-based. The settings on record: Mus musculus, BaF3, anti-proliferation. The text has this:
(§1) Inhibition of cell proliferation can be studied using Ba/F3 viability assays, including the Promega CellTiter-Glo cell viability assay. This assay can be used to study the effect of compounds described herein in the following assays: (1) Ba/F3 Parental; (2) Ba/F3 EGFR-Del19/T790M; (3); Ba/F3 EGFR-Del19/C797S; and (4) Ba/F3 EGFR-Del19/T790M/C797S.
Background: In ATP-based viability assays light output follows the ATP content of the culture.

A further assay addresses Ba/F3 EGFR-Del19/C797S (Homo sapiens, UniProt P00533, C797S, cells depend on it, form not given). Kind of assay: Ba/F3 viability assay (CellTiter-Glo), DC. The settings on record: anti-proliferation, read-out: BaF3 DC IC50. The assay is classed as cell-based.
Description: as §1

The target in the next assay is EGFR^L858R/T790M/C^797S (Homo sapiens, UniProt P00533, C797S/L858R/T790M). The experiment in a line: in vitro kinase assay (HTRF KinEASE-TK kit), LTC. The assay is classed as biochemical. The settings on record: kinase inhibition. The text has this: (§2) Assays using an in vitro kinase assay kit (HTRF KinEASE-TK kit) can be used to study the inhibitory activity of compounds described herein with respect to EGFR mutants such as EGFR^L858R, EGFR^L58R/T790M, and EGFR^L858R/T790M/C^797S.
Sequence of EGFR^L858R/T790M/C^797S (P00533 25-1210 T790M/C797S/L858R): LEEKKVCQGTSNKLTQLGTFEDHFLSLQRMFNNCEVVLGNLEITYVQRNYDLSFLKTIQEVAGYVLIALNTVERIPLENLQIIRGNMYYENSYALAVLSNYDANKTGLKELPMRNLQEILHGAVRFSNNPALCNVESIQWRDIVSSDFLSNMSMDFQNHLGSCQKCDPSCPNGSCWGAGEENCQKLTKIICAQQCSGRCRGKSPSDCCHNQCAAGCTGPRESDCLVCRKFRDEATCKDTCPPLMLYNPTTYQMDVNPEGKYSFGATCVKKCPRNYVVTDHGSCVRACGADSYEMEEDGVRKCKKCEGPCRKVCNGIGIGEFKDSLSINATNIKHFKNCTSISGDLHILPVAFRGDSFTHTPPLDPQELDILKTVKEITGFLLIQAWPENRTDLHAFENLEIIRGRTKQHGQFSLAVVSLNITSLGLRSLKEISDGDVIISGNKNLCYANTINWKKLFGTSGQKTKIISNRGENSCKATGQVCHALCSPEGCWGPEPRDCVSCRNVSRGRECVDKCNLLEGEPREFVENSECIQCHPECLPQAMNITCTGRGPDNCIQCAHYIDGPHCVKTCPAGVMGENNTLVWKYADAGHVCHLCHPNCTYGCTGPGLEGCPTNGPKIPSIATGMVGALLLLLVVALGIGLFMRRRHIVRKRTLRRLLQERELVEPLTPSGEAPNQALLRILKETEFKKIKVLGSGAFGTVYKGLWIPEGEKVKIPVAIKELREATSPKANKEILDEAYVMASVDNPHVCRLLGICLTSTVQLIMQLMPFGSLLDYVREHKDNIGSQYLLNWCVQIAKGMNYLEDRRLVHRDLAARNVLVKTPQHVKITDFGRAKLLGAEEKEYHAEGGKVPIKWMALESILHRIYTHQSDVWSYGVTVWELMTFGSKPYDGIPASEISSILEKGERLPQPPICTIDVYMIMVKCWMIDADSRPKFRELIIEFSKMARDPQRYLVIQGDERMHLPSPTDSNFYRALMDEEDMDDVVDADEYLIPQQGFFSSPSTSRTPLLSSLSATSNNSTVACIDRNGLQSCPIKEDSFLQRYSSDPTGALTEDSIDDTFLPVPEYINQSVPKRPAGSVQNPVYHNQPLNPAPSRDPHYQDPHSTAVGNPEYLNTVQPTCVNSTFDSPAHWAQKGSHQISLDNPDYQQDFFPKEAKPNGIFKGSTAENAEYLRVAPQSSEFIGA
(Time-resolved FRET reads energy transfer from a long-lived donor to a nearby acceptor.)

The next assay deals with EGFR^L858R (Homo sapiens, UniProt P00533, L858R). The experiment in a line: in vitro kinase assay (HTRF KinEASE-TK kit), L. The settings on record: kinase inhibition. The assay is classed as biochemical.
Sequence of EGFR^L858R (P00533 25-1210 L858R): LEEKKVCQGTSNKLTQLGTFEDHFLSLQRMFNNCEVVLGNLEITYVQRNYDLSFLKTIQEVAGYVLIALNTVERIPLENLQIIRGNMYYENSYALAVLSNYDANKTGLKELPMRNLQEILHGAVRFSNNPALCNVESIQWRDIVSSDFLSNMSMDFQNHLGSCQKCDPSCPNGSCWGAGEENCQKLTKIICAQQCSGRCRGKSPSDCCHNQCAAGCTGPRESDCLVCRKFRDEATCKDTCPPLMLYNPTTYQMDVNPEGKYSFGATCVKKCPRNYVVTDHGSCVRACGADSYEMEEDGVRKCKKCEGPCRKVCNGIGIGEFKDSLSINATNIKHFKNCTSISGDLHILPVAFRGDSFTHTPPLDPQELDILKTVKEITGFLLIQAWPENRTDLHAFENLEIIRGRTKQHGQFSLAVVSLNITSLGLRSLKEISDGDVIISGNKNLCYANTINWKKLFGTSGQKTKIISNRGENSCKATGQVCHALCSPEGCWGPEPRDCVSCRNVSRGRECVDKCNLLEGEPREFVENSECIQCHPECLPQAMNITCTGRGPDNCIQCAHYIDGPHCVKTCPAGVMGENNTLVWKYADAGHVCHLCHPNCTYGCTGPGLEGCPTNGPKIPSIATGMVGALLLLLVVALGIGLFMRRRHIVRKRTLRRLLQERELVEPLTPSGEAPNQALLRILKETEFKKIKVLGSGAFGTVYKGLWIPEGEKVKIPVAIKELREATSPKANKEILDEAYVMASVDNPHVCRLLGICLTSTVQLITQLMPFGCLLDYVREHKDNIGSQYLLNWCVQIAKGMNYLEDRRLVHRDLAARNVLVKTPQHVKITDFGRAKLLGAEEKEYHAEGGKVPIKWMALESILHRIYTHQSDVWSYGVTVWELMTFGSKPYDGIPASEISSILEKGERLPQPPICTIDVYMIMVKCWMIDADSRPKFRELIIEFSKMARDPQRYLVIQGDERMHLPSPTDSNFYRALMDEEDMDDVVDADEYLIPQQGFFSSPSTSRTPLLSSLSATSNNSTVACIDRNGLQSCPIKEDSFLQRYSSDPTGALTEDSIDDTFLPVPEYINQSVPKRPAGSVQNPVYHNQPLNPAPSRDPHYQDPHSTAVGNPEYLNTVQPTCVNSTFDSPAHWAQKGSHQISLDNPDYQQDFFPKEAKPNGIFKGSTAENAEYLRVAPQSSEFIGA
Description: as §2

Assay [1] concerns the target Ba/F3 EGFR-Del19/T790M/C797S (Homo sapiens, UniProt P00533, T790M/C797S, cells depend on it, form not given). Kind of assay: Ba/F3 viability assay (CellTiter-Glo), DTC. The assay is classed as cell-based. The settings on record: anti-proliferation, read-out: BaF3 DTC IC50.
Description: as §1

The target in a further assay is Ba/F3 EGFR-Del19/T790M (Homo sapiens, UniProt P00533, T790M, cells depend on it, form not given). Kind of assay: Ba/F3 viability assay (CellTiter-Glo), DT. The assay is classed as cell-based. The settings on record: anti-proliferation, read-out: BaF3 DT IC50.
Sequence of Ba/F3 EGFR-Del19/T790M (P00533 with tags, fused parts or gaps DEL746-750/T790M, form open): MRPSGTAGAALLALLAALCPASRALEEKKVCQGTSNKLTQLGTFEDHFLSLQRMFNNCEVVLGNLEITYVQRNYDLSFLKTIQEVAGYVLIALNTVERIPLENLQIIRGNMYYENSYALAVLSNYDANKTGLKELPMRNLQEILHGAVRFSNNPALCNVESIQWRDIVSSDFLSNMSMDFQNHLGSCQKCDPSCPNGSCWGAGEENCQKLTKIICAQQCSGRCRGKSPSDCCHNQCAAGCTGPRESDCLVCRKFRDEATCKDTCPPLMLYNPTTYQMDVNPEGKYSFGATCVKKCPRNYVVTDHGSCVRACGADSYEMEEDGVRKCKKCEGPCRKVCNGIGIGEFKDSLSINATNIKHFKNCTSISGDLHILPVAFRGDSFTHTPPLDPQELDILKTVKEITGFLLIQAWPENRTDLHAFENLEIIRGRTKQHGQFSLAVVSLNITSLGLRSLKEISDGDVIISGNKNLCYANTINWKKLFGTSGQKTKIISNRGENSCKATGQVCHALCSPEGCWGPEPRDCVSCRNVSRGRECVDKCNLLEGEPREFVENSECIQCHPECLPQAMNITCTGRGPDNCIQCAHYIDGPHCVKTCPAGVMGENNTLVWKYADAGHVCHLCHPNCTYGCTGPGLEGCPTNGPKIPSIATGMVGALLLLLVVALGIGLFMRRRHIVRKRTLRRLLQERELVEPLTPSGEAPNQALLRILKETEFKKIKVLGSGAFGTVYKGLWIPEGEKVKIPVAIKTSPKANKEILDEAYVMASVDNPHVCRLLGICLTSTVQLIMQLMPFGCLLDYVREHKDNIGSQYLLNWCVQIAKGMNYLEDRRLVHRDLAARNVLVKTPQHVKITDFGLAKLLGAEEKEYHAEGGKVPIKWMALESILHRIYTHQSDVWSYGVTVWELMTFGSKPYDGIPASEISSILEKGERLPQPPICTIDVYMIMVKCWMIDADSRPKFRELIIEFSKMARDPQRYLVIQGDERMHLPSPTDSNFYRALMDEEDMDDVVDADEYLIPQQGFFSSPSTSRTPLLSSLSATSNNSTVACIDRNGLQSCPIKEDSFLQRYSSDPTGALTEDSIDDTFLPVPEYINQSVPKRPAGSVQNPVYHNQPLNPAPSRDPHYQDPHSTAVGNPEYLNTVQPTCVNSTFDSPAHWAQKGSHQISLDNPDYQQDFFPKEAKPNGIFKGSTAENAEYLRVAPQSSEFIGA
Description: as §1

The target of another assay is EGFR^L58R/T790M (Homo sapiens, UniProt P00533, L858R/T790M). The experiment in a line: in vitro kinase assay (HTRF KinEASE-TK kit), LT. Type of assay: biochemical. The settings on record: kinase inhibition.
Description: as §2

Sequence of Ba/F3 EGFR-Del19/T790M/C797S (P00533 with tags, fused parts or gaps DEL746-750/T790M/C797S, form open): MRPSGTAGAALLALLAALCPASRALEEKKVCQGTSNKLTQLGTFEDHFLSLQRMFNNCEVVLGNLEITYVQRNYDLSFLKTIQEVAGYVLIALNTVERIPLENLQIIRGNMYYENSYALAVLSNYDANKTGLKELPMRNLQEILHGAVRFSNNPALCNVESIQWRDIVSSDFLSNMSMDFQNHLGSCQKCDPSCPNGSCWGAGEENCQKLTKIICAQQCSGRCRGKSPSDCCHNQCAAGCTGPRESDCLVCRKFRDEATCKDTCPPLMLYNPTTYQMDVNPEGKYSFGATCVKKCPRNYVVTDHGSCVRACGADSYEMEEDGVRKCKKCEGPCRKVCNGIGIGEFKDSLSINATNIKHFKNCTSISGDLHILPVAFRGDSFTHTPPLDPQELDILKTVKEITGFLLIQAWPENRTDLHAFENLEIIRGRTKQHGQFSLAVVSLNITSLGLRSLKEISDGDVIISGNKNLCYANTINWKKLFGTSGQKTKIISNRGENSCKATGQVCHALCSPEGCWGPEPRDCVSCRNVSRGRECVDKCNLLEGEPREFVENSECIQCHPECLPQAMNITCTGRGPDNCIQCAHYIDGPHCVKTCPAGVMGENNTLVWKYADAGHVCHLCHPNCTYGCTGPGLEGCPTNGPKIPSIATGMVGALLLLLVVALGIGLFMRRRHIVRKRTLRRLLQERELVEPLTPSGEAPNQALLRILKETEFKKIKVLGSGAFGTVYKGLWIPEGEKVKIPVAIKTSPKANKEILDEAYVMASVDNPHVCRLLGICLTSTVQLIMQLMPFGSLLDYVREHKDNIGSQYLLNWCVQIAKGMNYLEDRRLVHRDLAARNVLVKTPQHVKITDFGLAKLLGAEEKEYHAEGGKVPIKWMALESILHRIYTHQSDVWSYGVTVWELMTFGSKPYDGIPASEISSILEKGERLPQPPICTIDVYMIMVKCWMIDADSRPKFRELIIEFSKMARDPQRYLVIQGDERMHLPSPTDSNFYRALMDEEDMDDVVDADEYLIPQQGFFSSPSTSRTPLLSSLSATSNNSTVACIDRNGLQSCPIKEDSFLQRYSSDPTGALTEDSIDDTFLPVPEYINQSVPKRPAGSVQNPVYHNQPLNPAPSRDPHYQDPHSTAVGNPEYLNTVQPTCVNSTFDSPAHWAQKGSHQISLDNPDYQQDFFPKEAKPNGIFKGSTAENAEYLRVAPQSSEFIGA

Usually IC50 stands for the concentration needed to halve the response being measured. With `CCCN1CCN(Cc2ccc(-c3nn4c5cc(ncc35)Nc3ccnc(n3)-c3cnn(C)c3OCC[C@@H]4C)n2C)CC1` [(135)], the IC50 in the assay with Ba/F3 Parental was 100 to 1000 nM; on EGFR^L858R/T790M/C^797S, < 10 nM; at EGFR^L858R, < 10 nM; on EGFR^L58R/T790M it was < 10 nM. Also, the GI50 (at Ba/F3 EGFR-Del19/C797S; in assay [1]; on Ba/F3 EGFR-Del19/T790M) was < 10 nM throughout.
In the case of `C[C@H]1CCOc2c(cnn2C)-c2nccc(n2)Nc2cc3c(cn2)c(-c2cccc(N4CCC(N5CCN(C)CC5)CC4)c2)nn31` [(173)], the IC50 with Ba/F3 Parental is 100 to 1000 nM; on EGFR^L858R/T790M/C^797S it was < 10 nM; on EGFR^L858R, < 10 nM; against EGFR^L58R/T790M, < 10 nM. The GI50 (at Ba/F3 EGFR-Del19/C797S; in assay [1]; at Ba/F3 EGFR-Del19/T790M) was < 10 nM each time.
As for `C[C@H]1CCOc2c(cnn2C)-c2nccc(n2)Nc2cc3c(cn2)c(-c2ccc(CN4CCOCC4)n2C)nn31` [(120)], the IC50 is 100 to 1000 nM with Ba/F3 Parental, < 10 nM against EGFR^L858R/T790M/C^797S, < 10 nM against EGFR^L858R and < 10 nM against EGFR^L58R/T790M. The values for the GI50 (on Ba/F3 EGFR-Del19/C797S; in assay [1]; on Ba/F3 EGFR-Del19/T790M) were 10 to 100 nM, < 10 nM and < 10 nM, respectively.
Turning to `COCCN(C)Cc1ccc(-c2nn3c4cc(ncc24)Nc2ccnc(n2)-c2cnn(C)c2OCC[C@@H]3C)n1C` [(136)], the IC50 in the assay with Ba/F3 Parental was 100 to 1000 nM; against EGFR^L858R/T790M/C^797S, < 10 nM; against EGFR^L858R, < 10 nM; against EGFR^L58R/T790M it was < 10 nM. Moreover, the GI50 (at Ba/F3 EGFR-Del19/C797S; in assay [1]; at Ba/F3 EGFR-Del19/T790M) was < 10 nM throughout.
Turning to `C[C@H]1CCOc2c(cnn2C)-c2nccc(n2)Nc2cc3c(cn2)c(-c2ccnc(N4CCN(C)CC4)c2)nn31` [(96)], the half-maximal inhibitory concentration (IC50) in the assay with Ba/F3 Parental is 100 to 1000 nM; against EGFR^L858R/T790M/C^797S, < 10 nM; against EGFR^L858R it was < 10 nM; against EGFR^L58R/T790M, < 10 nM. Further, the GI50 (at Ba/F3 EGFR-Del19/C797S; in assay [1]; on Ba/F3 EGFR-Del19/T790M) was 10 to 100 nM throughout.
`C[C@H]1CCOc2c(cnn2C)-c2nccc(n2)Nc2cc3c(cn2)c(-c2cc(CN4CCN(C)CC4)n(C)n2)nn31` [(95)]: the IC50 with Ba/F3 Parental is 100 to 1000 nM; on EGFR^L858R/T790M/C^797S it was < 10 nM; at EGFR^L858R it was < 10 nM; against EGFR^L58R/T790M, < 10 nM. Also, the GI50 (at Ba/F3 EGFR-Del19/C797S; in assay [1]; at Ba/F3 EGFR-Del19/T790M) was 10 to 100 nM in each case.
With `C[C@H]1CCOc2c(cnn2C)-c2nccc(n2)Nc2cc3c(cn2)c(-c2ccc(F)c(OCCN4CCOCC4)c2)nn31` [(154)], the IC50 in the assay on Ba/F3 Parental was 100 to 1000 nM; at EGFR^L858R/T790M/C^797S, < 10 nM; on EGFR^L858R, < 10 nM; against EGFR^L58R/T790M, < 10 nM. Further, the GI50 at Ba/F3 EGFR-Del19/C797S is 10 to 100 nM; in assay [1] it was < 10 nM; at Ba/F3 EGFR-Del19/T790M, 10 to 100 nM.
Consider `C[C@H]1CCOc2c(cnn2C)-c2nccc(n2)Nc2cc3c(cn2)c(-c2ccc(CN4CCN(C5CC5)CC4)n2C)nn31` [(123)], for which the IC50 in the assay on Ba/F3 Parental was 100 to 1000 nM; at EGFR^L858R/T790M/C^797S, < 10 nM; against EGFR^L858R it was < 10 nM; against EGFR^L58R/T790M, < 10 nM. For the same molecule, the GI50 (on Ba/F3 EGFR-Del19/C797S; in assay [1]; at Ba/F3 EGFR-Del19/T790M) was < 10 nM in each case.
For the molecule `C[C@H]1CCOc2c(cnn2C)-c2nccc(n2)Nc2cc3c(cn2)c(-c2cccc(OCCN(C)C)c2)nn31` [(110)], the IC50 in the assay on Ba/F3 Parental was 100 to 1000 nM; against EGFR^L858R/T790M/C^797S it was < 10 nM; against EGFR^L858R, < 10 nM; on EGFR^L58R/T790M, < 10 nM. Besides, the GI50 (on Ba/F3 EGFR-Del19/C797S; in assay [1]; at Ba/F3 EGFR-Del19/T790M) was < 10 nM each time.
Take `CC(C)N(C)Cc1ccc(-c2nn3c4cc(ncc24)Nc2ccnc(n2)-c2cnn(C)c2OCC[C@@H]3C)n1C` [(189)]: the IC50 was 100 to 1000 nM with Ba/F3 Parental, < 10 nM at EGFR^L858R/T790M/C^797S, < 10 nM at EGFR^L858R and < 10 nM at EGFR^L58R/T790M. The GI50 (at Ba/F3 EGFR-Del19/C797S; in assay [1]; on Ba/F3 EGFR-Del19/T790M) was < 10 nM each time.
With `C[C@H]1CCOc2c(cnn2C)-c2nccc(n2)Nc2cc3c(cn2)c(-c2cccc(N4CC[C@@H](N(C)C)C4)c2)nn31` [(166)], the IC50 with Ba/F3 Parental is 100 to 1000 nM; at EGFR^L858R/T790M/C^797S, < 10 nM; at EGFR^L858R, < 10 nM; against EGFR^L58R/T790M, < 10 nM. For the same molecule, the GI50 (on Ba/F3 EGFR-Del19/C797S; in assay [1]; at Ba/F3 EGFR-Del19/T790M) was < 10 nM throughout.
